One data set deals with tyrosinase from mushroom. Kind of data set: In vitro test of the inhibition of isolated tyrosinase (L-DOPA to dopachrome, OD 490 nm). Format: biochemical. To be noted: 490 nm. From the text: Tyrosinase catalyses the formation of L-dopaquinone, and then dopachrome, from L-Dopa. Dopachrome is a colored compound which is quantifiable by visible spectrophotometry at 490 nm. The use of an active which is capable of modifying the enzymatic activity manifests itself by a variation in the optical density at 490nm.
The ratio of the rates of formation of the dopachrome enables the activations or the inhibitions obtained with the various molecules tested to de determined precisely.
The sample to be tested is incubated in the presence of tyrosinase from mushroom (Sigma) for 5 minutes under agitation. L-DOPA (Sigma), substrate of the tyrosinase, is incubated for 10 minutes in the dark in the presence or the absence of the molecules to be tested. The calculation of the percentage inhibition is made by comparing the OD of the test to the OD of the negative control without molecule.
Within the context of this in vitro test, the aurone derivatives were tested at final concentrations of 10^-4M and 10^-5M.

For data set [1], the target named is T1, Human tyrosinase (Homo sapiens, UniProt P14679).
T1 construct: Normal human melanocytes (originating from abdominal plasty) are sown in a 24-well plate; endogenous in cells; host or cells: normal human melanocytes from abdominal plasty; donors of light, brown and black phototype
T1 sequence (P14679 19-529): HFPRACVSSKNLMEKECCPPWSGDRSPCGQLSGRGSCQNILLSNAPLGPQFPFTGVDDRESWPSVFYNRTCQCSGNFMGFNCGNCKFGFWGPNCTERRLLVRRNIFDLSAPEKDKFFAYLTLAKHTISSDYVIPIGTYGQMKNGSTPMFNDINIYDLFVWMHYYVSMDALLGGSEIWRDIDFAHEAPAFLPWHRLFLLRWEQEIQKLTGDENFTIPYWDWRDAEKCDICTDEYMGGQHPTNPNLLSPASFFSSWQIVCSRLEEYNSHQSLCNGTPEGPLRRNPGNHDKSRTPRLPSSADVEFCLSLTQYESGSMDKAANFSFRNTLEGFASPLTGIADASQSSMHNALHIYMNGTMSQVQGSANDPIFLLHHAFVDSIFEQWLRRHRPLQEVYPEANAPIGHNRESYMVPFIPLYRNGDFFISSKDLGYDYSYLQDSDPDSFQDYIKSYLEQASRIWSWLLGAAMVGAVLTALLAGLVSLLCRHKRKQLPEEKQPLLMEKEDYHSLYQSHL
The data set is described as follows: In vitro test of the inhibition of human tyrosinase from melanocyte extract (L-Dopa/MBTH, OD 490 nm). Format: biochemical. To be noted: isolated human tyrosinase, read-out: Inhibition of human tyrosinase, percentage inhibition. As to the method:
Human tyrosinase obtained from melanocyte extracts originating from healthy donors catalyses the formation of L-Dopaquinone from L-Dopa. L-dopaquinone can be quantified by visible spectrophotometry at 490 nm by virtue of a chromogen : 3-methyl-2-benzothiazolinone hydrazone (MBTH).
The melanocyte extract is obtained after lysis of the cell membranes of the normal human melanocytes which lysis is carried out by a heat shock. The supernatant is recovered and then incubated with MBTH (Sigma) and L-Dopa (Sigma).

For data set [2], the target named is T1, Human tyrosinase. The data set is described as follows: Inhibition of human tyrosinase in a monolayer after 24 h application of the actives on normal human melanocytes (MBTH/L-Dopa, OD 490 nm/protein). Type of data set: cell-based. To be noted: for inhibition at 1000 µM: 10^-3 M; for Inhibition (%): model of Example 15. The procedure: Normal human melanocytes (originating from abdominal plasty) are sown in a 24-well plate at the rate of 80,000 cells per well. They are cultivated up to confluence and the actives are applied for 24 hours in the culture media. After 24 hours, the media are removed and the melanocytes are picked up by mechanical action. An extraction is made by heat shock and the supernatants are then recovered and then incubated with MBTH (Sigma) and L-Dopa (Sigma).
The compound obtained in Example 9b was tested on melanocytes originating from various donors but of light phototypes according to the method described in Example 15. […] Table 6 : Inhibition of tyrosinase by compound 9b on 4 different donors.
The compound obtained in Example 9b is tested on cultures of melanocytes originating from 2 donors of brown phototypes and from one donor of negroid phototype. The method applied is that described in Example 15.
(§1) A study is made with molecules known in the literature for their depigmenting activity. These molecules are applied to the model described in Example 15 so as to compare their efficiency with respect to the aurones described above.

The subject of a further data set is normal human melanocytes. Kind of data set: Cytotoxicity by PNPP determination (percentage viability). Type of data set: cell-based. The settings on record: 24 hours at 37°C, with respect to non-treated wells. As to the method: The cytotoxicity of the actives is studied on normal human melanocytes in a 24-well plate by a determination with PNPP (P-nitrophenyl phosphate), a substance which is converted into p-nitrophenol by the intracellular acid phosphatases of viable cells.
The absorbance of p-nitrophenol at 405 nm is directly proportional to the number of viable cells.
The actives are tested at 2 different concentrations (10^-4 M and 10^-5 M) and are added to the culture medium and are incubated at 37°C for 24 hours. The determination with PNPP is carried out on a cell mat and the results are expressed as a percentage viability with respect to the negative control (non-treated wells). The results obtained are summarized in Table 9 below : Tableau 9 : Percentages viability obtained for the various aurone derivatives on normal human melanocytes (the molecules were tested at 2 concentrations 10^-4 and 10^-5 M.

In the next data set the test system is melanocytes.
Excerpt: as §1

Where two headings read alike, the source gives them in different places.

Consider 2 compounds from patent EP1709964A2, “A method of cosmetic depigmentation care by applying at least one aurone” (ENGELHARD LYON, priority 2005, dated 2006).

Regarding `O=C1/C(=C/c2ccc(O)cc2)Oc2cc(O)cc(O)c21` [Example 9b, (Z)-4,6-Dihydroxy-2-(4'-hydroxybenzylidene)benzofuran-3(2H)-one], the entries for the “Inhibition of tyrosinase from mushroom, percentage inhibition” value in the data set with tyrosinase from mushroom (10^-4M) and with tyrosinase from mushroom (10^-5M) were 23.85 ± 2.42% and 0 ± 1.73%, respectively. Further, the inhibition at 100 µM on Human tyrosinase [1] (10^-4M) was 18 ± 1.6%; at Human tyrosinase [2] (10^-4M, 24 hours, read-out: Inhibition of human tyrosinase after application on normal human melanocytes, percentage inhibition), 75.3%; at Human tyrosinase [2] (Donor 1 (light phototype), 10^-4 M, read-out: Inhibition of tyrosinase) it was 37.8%; at Human tyrosinase [2] (Donor 2 (light phototype), 10^-4 M, read-out: Inhibition of tyrosinase) it was 43%; at Human tyrosinase [2] (Donor 3 (light phototype), 10^-4 M, read-out: Inhibition of tyrosinase) it was 63.4%; on Human tyrosinase [2] (Donor A, brown phototype, 10^-4 M, read-out: Inhibitions of tyrosinase), 45%. In addition, the inhibition at 100 µM was determined as 67% at Human tyrosinase [2] (Donor B, brown phototype, 10^-4 M, read-out: Inhibitions of tyrosinase); 75.3% at Human tyrosinase [2] (Donor S (light phototype), 10^-4 M, read-out: Inhibition of tyrosinase); 65.8% on Human tyrosinase [2] (Donor, 10^-4 M, read-out: Inhibition). Moreover, the inhibition at 10 µM on Human tyrosinase [1] (10^-5M) is 5.62 ± 2.73%; on Human tyrosinase [2] (10^-5M, 24 hours, read-out: Inhibition of human tyrosinase after application on normal human melanocytes, percentage inhibition), 35.2%; on Human tyrosinase [2] (Donor 1 (light phototype), 10^-5 M, read-out: Inhibition of tyrosinase) it was -9.77%; at Human tyrosinase [2] (Donor 2 (light phototype), 10^-5 M, read-out: Inhibition of tyrosinase) it was -7.56%; on Human tyrosinase [2] (Donor 3 (light phototype), 10^-5 M, read-out: Inhibition of tyrosinase) it was 24.7%; at Human tyrosinase [2] (Donor A, brown phototype, 10^-5 M, read-out: Inhibitions of tyrosinase), 25.4%. Further, the inhibition at 10 µM turned out to be 31.8% on Human tyrosinase [2] (Donor B, brown phototype, 10^-5 M, read-out: Inhibitions of tyrosinase); 35.2% on Human tyrosinase [2] (Donor S (light phototype), 10^-5 M, read-out: Inhibition of tyrosinase); 39.5% at Human tyrosinase [2] (Donor, 10^-5 M, read-out: Inhibition). In addition, the “Inhibition of human tyrosinase after application on normal human melanocytes, percentage inhibition” value was determined as 75.31 ± 8.51% at Human tyrosinase [2] (10^-4M, 24 hours) and 35.23 ± 2.34% on Human tyrosinase [2] (10^-5M, 24 hours). For the same compound, the inhibition at 1000 µM is 97.5% at Human tyrosinase [2] (Donor A, brown phototype, read-out: Inhibitions of tyrosinase) and 91.8% at Human tyrosinase [2] (Donor B, brown phototype, read-out: Inhibitions of tyrosinase). Further, the values for the Percentages viability in the data set on normal human melanocytes (10^-4 M) and with normal human melanocytes (10^-5 M) were 90.31% and 128.39%, respectively.
For the compound `O=C1O[C@H]([C@@H](O)CO)C(O)=C1OP(=O)(O)O` [VitC PMG, reference compound], the “Inhibition (%)” value on Human tyrosinase [2] (0.03%) is 2.93%; at Human tyrosinase [2] (0.3%) it was 1.55%; at Human tyrosinase [2] (3%), -3.49%. The cytotoxicity entry with melanocytes is recorded as “no”.
